Assay results taken from the NIST ThermoML archive (doi:10.1016/j.jct.2016.04.020).
± gives the expanded uncertainty stated by the source.

Assay: mn = molality of the nth substance listed, in mol/kg
Conditions: 101.3 kPa, Liquid, Vibrating tube method

For `O=C([O-])CC(O)(CC(=O)[O-])C(=O)[O-].[NH4+].[NH4+].[NH4+]` [ammonium 2-hydroxypropane-1,2,3-tricarboxylate] + O, the mass density (283.15 K, m1 = 0.0125) was 1001.9 ± 0.24 kg/m3, the mass density (283.15 K, m1 = 0.025) was 1003.43 ± 0.23 kg/m3 and the mass density (283.15 K, m1 = 0.04999) was 1006.27 ± 0.23 kg/m3. It also gave a mass density (283.15 K, m1 = 0.09998) of 1011.68 ± 0.23 kg/m3, a mass density (283.15 K, m1 = 0.1499) of 1017.03 ± 0.23 kg/m3 and a mass density (283.15 K, m1 = 0.2) of 1022.12 ± 0.23 kg/m3. It also gave a mass density (287.15 K, m1 = 0.0125) of 1001.25 ± 0.24 kg/m3, a mass density (287.15 K, m1 = 0.025) of 1002.76 ± 0.23 kg/m3 and a mass density (287.15 K, m1 = 0.04999) of 1005.56 ± 0.23 kg/m3. The mass density (287.15 K, m1 = 0.09998) was 1010.91 ± 0.23 kg/m3, the mass density (287.15 K, m1 = 0.1499) was 1016.2 ± 0.23 kg/m3 and the mass density (287.15 K, m1 = 0.2) was 1021.24 ± 0.23 kg/m3. For the same compound, the mass density (293.15 K, m1 = 0.0125) was 1000.32 ± 0.24 kg/m3, the mass density (293.15 K, m1 = 0.025) was 1001.83 ± 0.23 kg/m3 and the mass density (293.15 K, m1 = 0.04999) was 1004.59 ± 0.23 kg/m3. The mass density (293.15 K, m1 = 0.09998) was 1009.9 ± 0.23 kg/m3, the mass density (293.15 K, m1 = 0.1499) was 1015.14 ± 0.23 kg/m3 and the mass density (293.15 K, m1 = 0.2) was 1020.13 ± 0.23 kg/m3. The mass density (298.15 K, m1 = 0.0125) was 999.12 ± 0.24 kg/m3, the mass density (298.15 K, m1 = 0.025) was 1000.6 ± 0.23 kg/m3 and the mass density (298.15 K, m1 = 0.04999) was 1003.33 ± 0.23 kg/m3. The mass density (298.15 K, m1 = 0.09998) was 1008.6 ± 0.23 kg/m3, the mass density (298.15 K, m1 = 0.1499) was 1013.82 ± 0.23 kg/m3 and the mass density (298.15 K, m1 = 0.2) was 1018.77 ± 0.23 kg/m3. For the same compound, the mass density (303.15 K, m1 = 0.0125) was 997.71 ± 0.24 kg/m3, the mass density (303.15 K, m1 = 0.025) was 999.18 ± 0.23 kg/m3 and the mass density (303.15 K, m1 = 0.04999) was 1001.88 ± 0.23 kg/m3. It also gave a mass density (303.15 K, m1 = 0.09998) of 1007.13 ± 0.23 kg/m3, a mass density (303.15 K, m1 = 0.1499) of 1012.32 ± 0.23 kg/m3 and a mass density (303.15 K, m1 = 0.2) of 1017.26 ± 0.23 kg/m3. For the same compound, the mass density (308.15 K, m1 = 0.0125) was 996.07 ± 0.24 kg/m3, the mass density (308.15 K, m1 = 0.025) was 997.53 ± 0.23 kg/m3 and the mass density (308.15 K, m1 = 0.04999) was 1000.22 ± 0.23 kg/m3. It also gave a mass density (308.15 K, m1 = 0.09998) of 1005.44 ± 0.23 kg/m3, a mass density (308.15 K, m1 = 0.1499) of 1010.62 ± 0.23 kg/m3 and a mass density (308.15 K, m1 = 0.2) of 1015.55 ± 0.23 kg/m3. It also gave a mass density (313.15 K, m1 = 0.0125) of 994.23 ± 0.24 kg/m3, a mass density (313.15 K, m1 = 0.025) of 995.69 ± 0.23 kg/m3 and a mass density (313.15 K, m1 = 0.04999) of 998.32 ± 0.23 kg/m3. For the same compound, the mass density (313.15 K, m1 = 0.09998) was 1003.56 ± 0.23 kg/m3, the mass density (313.15 K, m1 = 0.1499) was 1008.75 ± 0.23 kg/m3 and the mass density (313.15 K, m1 = 0.2) was 1013.67 ± 0.23 kg/m3. The mass density (318.15 K, m1 = 0.0125) was 992.21 ± 0.24 kg/m3, the mass density (318.15 K, m1 = 0.025) was 993.66 ± 0.23 kg/m3 and the mass density (318.15 K, m1 = 0.04999) was 996.29 ± 0.23 kg/m3. The mass density (318.15 K, m1 = 0.09998) was 1001.54 ± 0.23 kg/m3, the mass density (318.15 K, m1 = 0.1499) was 1006.7 ± 0.23 kg/m3 and the mass density (318.15 K, m1 = 0.2) was 1011.63 ± 0.23 kg/m3. For the same compound, the mass density (323.15 K, m1 = 0.0125) was 990.03 ± 0.24 kg/m3, the mass density (323.15 K, m1 = 0.025) was 991.47 ± 0.23 kg/m3 and the mass density (323.15 K, m1 = 0.04999) was 994.08 ± 0.23 kg/m3. The mass density (323.15 K, m1 = 0.09998) was 999.34 ± 0.23 kg/m3, the mass density (323.15 K, m1 = 0.1499) was 1004.49 ± 0.23 kg/m3 and the mass density (323.15 K, m1 = 0.2) was 1009.46 ± 0.23 kg/m3. For the same compound, the mass density (328.15 K, m1 = 0.0125) was 987.68 ± 0.24 kg/m3, the mass density (328.15 K, m1 = 0.025) was 989.12 ± 0.23 kg/m3 and the mass density (328.15 K, m1 = 0.04999) was 991.7 ± 0.23 kg/m3. It also gave a mass density (328.15 K, m1 = 0.09998) of 996.99 ± 0.23 kg/m3, a mass density (328.15 K, m1 = 0.1499) of 1002.14 ± 0.23 kg/m3 and a mass density (328.15 K, m1 = 0.2) of 1007.11 ± 0.23 kg/m3. For the same compound, the mass density (333.15 K, m1 = 0.0125) was 985.17 ± 0.24 kg/m3, the mass density (333.15 K, m1 = 0.025) was 986.62 ± 0.23 kg/m3 and the mass density (333.15 K, m1 = 0.04999) was 989.15 ± 0.23 kg/m3. It also gave a mass density (333.15 K, m1 = 0.09998) of 994.46 ± 0.23 kg/m3, a mass density (333.15 K, m1 = 0.1499) of 999.65 ± 0.23 kg/m3 and a mass density (333.15 K, m1 = 0.2) of 1004.59 ± 0.23 kg/m3.
